Each structure is given as a SMILES string. Several values for one entry are separate records, joined by “and”; a condition that tells them apart may be missing. Identical values can stand only once.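 Assay format: 96-well plates, 48-hour exposure. The concentration for 50% growth inhibition is given as GI50. TGI is the concentration that stops growth completely.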 Where only a bound is given, the exact number is not on record here.

These results are taken from PubChem BioAssay (NCI).

Some test systems named below: SR leukemia; NCI-H522 lung; MOLT-4 leukemia; M14 melanoma; SK-MEL-5 melanoma; OVCAR-4 ovarian; SK-MEL-28 melanoma; HOP-62 NSCLC; IGROV1 ovarian; CCRF-CEM leukemia.
What all share (assay): NCI tumour cell line growth inhibition, 48 h

Regarding `CC[C@@]1(OC(=O)CN(C)C)C(=O)OCc2c1cc1n(c2=O)Cc2cc3ccccc3nc2-1`, the GI50 in the assay with SR leukemia was 0.00209 µM; in the assay with NCI-H522 lung, 0.0396 µM; in the assay on M14 melanoma it was 0.0424 µM; with SK-MEL-5 melanoma, 0.0379 µM; in the assay on OVCAR-4 ovarian, 0.205 µM; in the assay with SK-MEL-28 melanoma, 1.01 µM. Moreover, the GI50 in the assay on IGROV1 ovarian is 0.217 µM. Moreover, the TGI in the assay with SR leukemia is 0.114 µM and < 0.0427 µM; in the assay with NCI-H522 lung it was 3.45 µM and 1.68 µM; in the assay with MOLT-4 leukemia, 0.318 µM and 0.344 µM; in the assay with M14 melanoma, 0.574 µM and 0.559 µM; in the assay with SK-MEL-5 melanoma, 0.316 µM and 0.213 µM; with OVCAR-4 ovarian, 5.61 µM and 0.733 µM. The TGI is 1.36 µM in the assay on HOP-62 NSCLC; 4.43 µM and > 23.3 µM with IGROV1 ovarian.
In the case of `COC1C(CO)OC(n2c3ccccc3c3c4c(c5c6ccccc6[nH]c5c32)C(=O)NC4=O)C(O)C1OC(=O)C(N)CCCCN` (stereo not given), the GI50 in the assay with NCI-H522 lung is 0.168 µM; in the assay on MOLT-4 leukemia, 0.178 µM; with M14 melanoma, 0.689 µM; in the assay on CCRF-CEM leukemia, 0.23 µM; with SK-MEL-5 melanoma, 0.208 µM; with OVCAR-4 ovarian, 3.83 µM. In addition, the GI50 is 2.67 µM with SK-MEL-28 melanoma, 1.09 µM with HOP-62 NSCLC and 0.61 µM with IGROV1 ovarian. The TGI is 3.55 µM in the assay with NCI-H522 lung; greater than 50 µM in the assay on MOLT-4 leukemia; greater than 11 µM in the assay on M14 melanoma; greater than 50 µM in the assay with CCRF-CEM leukemia; 0.838 µM in the assay with SK-MEL-5 melanoma; greater than 50 µM with OVCAR-4 ovarian. Also, the TGI was greater than 18.2 µM in the assay on SK-MEL-28 melanoma, 17.4 µM with HOP-62 NSCLC and 4.42 µM in the assay on IGROV1 ovarian.
As for `CCCCCCN1C(=O)CN=C1Nc1ccc2cc3ccc(NC4=NCC(=O)N4CCCCCC)cc3nc2c1`, the GI50 in the assay on SR leukemia is 1.53 µM; in the assay with NCI-H522 lung, 1.79 µM; with M14 melanoma, 1.95 µM; with CCRF-CEM leukemia, 2.49 µM; in the assay with SK-MEL-5 melanoma it was 3.9 µM; in the assay with OVCAR-4 ovarian it was 1.66 µM. The GI50 with SK-MEL-28 melanoma was 2.21 µM; in the assay on IGROV1 ovarian, 1.85 µM. The TGI is 4.22 µM with SR leukemia; 3.91 µM in the assay with NCI-H522 lung; 4.84 µM in the assay with M14 melanoma; 6.79 µM with CCRF-CEM leukemia; 15.8 µM in the assay on SK-MEL-5 melanoma; 4.01 µM in the assay with OVCAR-4 ovarian. Also, the TGI worked out at 5.92 µM in the assay with SK-MEL-28 melanoma and 4.28 µM with IGROV1 ovarian.
Take `O=C(OCc1nc2ccc(Br)cc2c(=O)n1-c1ccccc1)c1ccccc1O`: the TGI in the assay on NCI-H522 lung was greater than 100 µM; in the assay on MOLT-4 leukemia it was greater than 100 µM; in the assay with M14 melanoma, greater than 100 µM; with CCRF-CEM leukemia, greater than 100 µM; in the assay on SK-MEL-5 melanoma, 68.7 µM; with OVCAR-4 ovarian, greater than 100 µM. The TGI in the assay with SK-MEL-28 melanoma, in the assay with HOP-62 NSCLC and in the assay with IGROV1 ovarian was greater than 100 µM throughout.
Take `Cn1c(COC(=O)NCCN2CCOCC2)nc2c(N3CCOCC3)nc(-c3ccccc3)nc21`: the GI50 in the assay with NCI-H522 lung was 0.424 µM; with MOLT-4 leukemia it was 0.972 µM; in the assay with M14 melanoma, 1.15 µM; in the assay with CCRF-CEM leukemia, 0.306 µM; in the assay on SK-MEL-5 melanoma it was 1.64 µM; in the assay on OVCAR-4 ovarian, 1.11 µM. Besides, the GI50 with SK-MEL-28 melanoma is 1.51 µM; in the assay with HOP-62 NSCLC it was 1.29 µM; in the assay on IGROV1 ovarian, 0.656 µM. The TGI was found to be 2.02 µM in the assay on NCI-H522 lung; 5.96 µM with MOLT-4 leukemia; 2.58 µM with M14 melanoma; 2.17 µM with CCRF-CEM leukemia; 3.05 µM in the assay on SK-MEL-5 melanoma; 2.53 µM with OVCAR-4 ovarian. The TGI in the assay with SK-MEL-28 melanoma amounted to 2.94 µM; in the assay with HOP-62 NSCLC it was 3.3 µM; in the assay with IGROV1 ovarian, 2.15 µM.
Regarding `COC(=O)Nc1nc2ccc(Sc3ccc(NC(=O)Nc4cc(C(F)(F)F)ccc4F)cc3)cc2[nH]1`, the GI50 in the assay on NCI-H522 lung was 2.05 µM; in the assay with MOLT-4 leukemia, 3.26 µM; in the assay with M14 melanoma, 2.01 µM; in the assay with CCRF-CEM leukemia, 3.3 µM; with SK-MEL-5 melanoma, 0.95 µM; in the assay with OVCAR-4 ovarian, 3.64 µM. Further, the GI50 with SK-MEL-28 melanoma was 2.81 µM; in the assay on HOP-62 NSCLC, 3.73 µM; in the assay on IGROV1 ovarian, 3.52 µM. In addition, the TGI was determined as 6.27 µM in the assay with NCI-H522 lung; 17 µM with MOLT-4 leukemia; 8.26 µM with M14 melanoma; 12.5 µM in the assay with CCRF-CEM leukemia; 11.7 µM in the assay with SK-MEL-5 melanoma; 10.7 µM in the assay on OVCAR-4 ovarian. Further, the TGI is 16.5 µM in the assay with SK-MEL-28 melanoma, 9.56 µM in the assay on HOP-62 NSCLC and 11.1 µM with IGROV1 ovarian.
With `CCOC(=O)NNC(=O)NC12CC3CC(CC(C3)C1)C2`, the TGI with NCI-H522 lung, in the assay on MOLT-4 leukemia, in the assay on M14 melanoma, in the assay on CCRF-CEM leukemia, in the assay with SK-MEL-5 melanoma and in the assay with OVCAR-4 ovarian was greater than 100 µM throughout. The TGI in the assay with SK-MEL-28 melanoma, in the assay with HOP-62 NSCLC and in the assay on IGROV1 ovarian was greater than 100 µM throughout.
On to `C=C(C)[C@]12CC(C)C34OC(/C=C\C=C\CCCCCCCCC)(O[C@@H]1[C@@H]3[C@@H]1O[C@]1(CO)[C@@H](O)[C@]1(O)C(=O)C(C)=C[C@@H]41)O2` (stereo not given in full), for which the TGI in the assay with SR leukemia is 15.8 µM; with NCI-H522 lung, 30.7 µM; with M14 melanoma it was 27.4 µM; with CCRF-CEM leukemia, greater than 26.1 µM; in the assay with SK-MEL-5 melanoma, 24.3 µM; in the assay on OVCAR-4 ovarian, 22.6 µM. Further, the values for the TGI in the assay with SK-MEL-28 melanoma and with IGROV1 ovarian were 25.6 µM and 30 µM, respectively. Also, in the assay on SK-MEL-5 melanoma, the GI50 was 0.000417 µM.
`COc1cc(/C=C\c2cccnc2Nc2ccccc2)cc(OC)c1OC`: the GI50 is 7.44 µM with NCI-H522 lung; 6.72 µM with MOLT-4 leukemia; 8.99 µM with M14 melanoma; 7.08 µM in the assay with CCRF-CEM leukemia; 4.17 µM in the assay on SK-MEL-5 melanoma; 9.78 µM in the assay on OVCAR-4 ovarian. Further, the values for the GI50 with SK-MEL-28 melanoma, in the assay with HOP-62 NSCLC and with IGROV1 ovarian were 5.43 µM, 12.1 µM and 12.6 µM, respectively. The TGI in the assay on NCI-H522 lung is 40.7 µM; in the assay with MOLT-4 leukemia it was 46.2 µM; with M14 melanoma, 38.1 µM; in the assay on CCRF-CEM leukemia, greater than 100 µM; in the assay with SK-MEL-5 melanoma it was 16.4 µM; in the assay with OVCAR-4 ovarian it was greater than 100 µM. Besides, the figures for the TGI in the assay on SK-MEL-28 melanoma, with HOP-62 NSCLC and with IGROV1 ovarian were 41 µM, greater than 100 µM and greater than 100 µM, respectively.
